Reference: patent US4528289A, “Corynantheine derivates, processes for their preparation, and their use” (Dr. Willmar Schwabe GmbH & Co., priority 1982, dated 1985)

Assays:
[1] = system: heart rate of spontaneously hypertonic rats; experiment: chronological course of heart rate of spontaneously hypertonic rats; type: in vivo, rat; design: unit not given here; details: 20 mg/kg, 4 h.
mice = experiment: acute toxicity, LD50 (Litchfield and Wilcoxon) on mice; type: in vivo; details: i.v., i.p. and oral LD50, mice
Excerpt: (§1) The toxicity of the compounds according to the present invention can be seen from the LD50 values given in the following Table 8 for intravenous, intraperitoneal and oral administration.

[2] = as above; type: in vivo; details: mouse, in vivo, mice
Excerpt: as §1

CHCl3 arrhythmia = experiment: inhibition of CHCl3 arrhythmia on mice, i.p.; type: in vivo
Excerpt: (§2) The antiarrhythmic effectiveness of DHCN and THCN was investigated on mice and rats.

[3] = system: stereotypy brought about by apomorphine; experiment: potentiation of apomorphine stereotypy in mice; type: in vivo; details: oral, same dosage range (10 to 20 mg/kg)
[4] = system: systolic blood pressure of spontaneously hypertonic rats; experiment: systolic blood pressure of spontaneously hypertonic rats after oral administration; type: in vivo, rat; details: for systolic blood pressure, subsequent value / systolic blood pressure, Δ / systolic blood pressure, Δ %: 2 h
Excerpt: (§3) The blood pressure-lowering action of the compound THCN according to the present invention and of DHCN was investigated on spontaneously hypertonic rats after oral administration and compared with that of ajmalicine. The method thereby used for the measurement of the systolic blood pressure and of the heart rate on rats is described in Arzneimittel-Forschung, 18, 1285-1287/1968. Before commencement of the experiments, the animals were familiarised with the measurement procedure.
(§4) In a first series of experiments, the systolic blood pressure and the heart rate were investigated 2 hours after the oral administration of the test substances in the form of their hydrochlorides. The substances were suspended in 0.2% agar and administered in a volume of 10 ml./kg. It follows therefrom that all three substances lower the blood pressure in a dosage-dependent manner.

[5] = system: heart rate of spontaneously hypertonic rats; experiment: chronological course of heart rate of spontaneously hypertonic rats; type: in vivo, rat; design: heart rate at time t: unit not given here
Excerpt: as §3
(§5) In a further series of experiments, the chronological course of the blood pressure lowering was investigated. For this purpose, spontaneously hypertonic rats were treated with 10 mg./kg. DHCN and with 5 or 10 mg./kg. THCN per os and in each case 6 or 12 animals of the treated group were measured at definite times after the treatment.

[6] = system: systolic blood pressure of spontaneously hypertonic rats; experiment: chronological course of blood pressure decrease in spontaneously hypertonic rats; type: in vivo, rat
Excerpt: as §3, §5

circulatory disturbances = details: known therapy of circulatory disturbances; cited from earlier work
[7] = system: heart rate of spontaneously hypertonic rats; experiment: heart rate of spontaneously hypertonic rats after oral administration; type: in vivo, rat; details: 2 h
Excerpt: as §3, §4

[8] = system: aconitine-induced arrythmias; experiment: protection against aconitine-induced arrhythmias in urethane-narcotised rats, i.v.; type: in vivo; details: 2 to 5 mg/kg (THCN)
Excerpt: as §2

[9] = system: blood pressure, vessels, central nervous system; experiment: general pharmacological action (statement in words); details: in vivo
[10] = 18 mg/kg p.o., ajmalicine hydrochloride
[11] = 40 mg/kg p.o., ajmalicine hydrochloride
[12] = 56 mg/kg p.o., ajmalicine hydrochloride
[13] = 86 mg/kg p.o., ajmalicine hydrochloride
[14] = 100 mg/kg p.o., ajmalicine hydrochloride
[15] = 4 mg/kg p.o., dihydrocorynantheine
[16] = 8.6 mg/kg p.o., dihydrocorynantheine
[17] = 18 mg/kg p.o., dihydrocorynantheine
[18] = 32 mg/kg p.o., dihydrocorynantheine
[19] = 56 mg/kg p.o., dihydrocorynantheine

## COC(=O)C1=CO[C@@H](C)[C@H]2CN3CCc4c([nH]c5ccccc45)[C@@H]3C[C@H]12 [ajmalicine, reference compound]
[1]
  heart rate at time t: 499
mice
  toxicities compared (in words): almost the same
[2]; ip
  LD50: 90 mg/kg
[2]; iv
  LD50: 14 mg/kg
[2]; po
  LD50: 360 mg/kg
CHCl3 arrhythmia
  antiarrhythmic effectiveness, chloroform arrythmias (in words): no antiarrythmic effectiveness
CHCl3 arrhythmia; 25 mg/kg
  inhibition in % of CHCl3 arrhythmia: 0%
[3]
  properties influencing the central nervous system (in words): no properties influencing the central nervous system
[4]; [10]
  systolic blood pressure, subsequent value: 198 ± 7 mm Hg
  systolic blood pressure, Δ: -12 ± 2 mm Hg
  systolic blood pressure, Δ %: -5.6 ± 1%
[4]; [11]
  systolic blood pressure, subsequent value: 173 ± 7 mm Hg
  systolic blood pressure, Δ: -25 ± 6 mm Hg
  systolic blood pressure, Δ %: -12.4 ± 3%
[4]; [12]
  systolic blood pressure, subsequent value: 172 ± 4 mm Hg
  systolic blood pressure, Δ: -37 ± 5 mm Hg
  systolic blood pressure, Δ %: -17.5 ± 2.1%
[4]; 56 mg/kg, not exceeded with dosages up to 100 mg/kg
  maximum blood pressure lowering: about 18%
[4]; [13]
  systolic blood pressure, subsequent value: 165 ± 11 mm Hg
  systolic blood pressure, Δ: -36 ± 12 mm Hg
  systolic blood pressure, Δ %: -17.7 ± 6.1%
[4]; [14]
  systolic blood pressure, subsequent value: 165 ± 5 mm Hg
  systolic blood pressure, Δ: -33 ± 9 mm Hg
  systolic blood pressure, Δ %: -16.3 ± 4%
[5]; 20 mg/kg, 10 min.
  heart rate at time t: 503
[5]; 20 mg/kg, 20 min.
  heart rate at time t: 505
[5]; 20 mg/kg, 40 min.
  heart rate at time t: 482
[5]; 20 mg/kg, 80 min.
  heart rate at time t: 481
[5]; 20 mg/kg, 2 h.
  heart rate at time t: 472
[5]; 20 mg/kg, 6 h.
  heart rate at time t: 491
[6]; 20 mg/kg, 10 min.
  percentage decrease of blood pressure: 9.5%
[6]; 20 mg/kg, 20 min.
  percentage decrease of blood pressure: 13.0%
[6]; 20 mg/kg, 40 min.
  percentage decrease of blood pressure: 14.2%
[6]; 20 mg/kg, 80 min.
  percentage decrease of blood pressure: 9.8%
[6]; 20 mg/kg, 2 h.
  percentage decrease of blood pressure: 5.8%
[6]; 20 mg/kg, 4 h.
  percentage decrease of blood pressure: -1.2%
[6]; 20 mg/kg, 6 h.
  percentage decrease of blood pressure: -0.5%
Circulatory disturbances
  period of activity (in words): relatively short period of activity
[7]; [10]
  heart rate, subsequent value: 492 ± 27 beats/min.
  heart rate, Δ: 30 ± 15 beats/min.
  heart rate, Δ %: 7.3 ± 4.3%
[7]; [11]
  heart rate, subsequent value: 513 ± 11 beats/min.
  heart rate, Δ: 51 ± 19 beats/min.
  heart rate, Δ %: 11.9 ± 4.4%
[7]; [12]
  heart rate, subsequent value: 522 ± 9 beats/min.
  heart rate, Δ: 4 beats/min.
  heart rate, Δ %: 0.8 ± 1.6%
[7]; [13]
  heart rate, subsequent value: 511 ± 4 beats/min.
  heart rate, Δ: 14 ± 2 beats/min.
  heart rate, Δ %: 2.9 ± 2.0%
[7]; [14]
  heart rate, subsequent value: 515 ± 9 beats/min.
  heart rate, Δ: 26 ± 11 beats/min.
  heart rate, Δ %: 5.3%
[8]
  antiarrhythmic effectiveness, aconitine-induced arrythmias (in words): no antiarrythmic effectiveness

## CC[C@H]1CN2CCc3c([nH]c4ccccc34)[C@@H]2C[C@@H]1/C(=C\OC)C(=O)OC [DHCN, dihydrocorynantheine]
mice
  toxicities compared (in words): almost the same
[2]; ip
  LD50: 98 mg/kg
[2]; iv
  LD50: 13 mg/kg
[2]; po
  LD50: 210 mg/kg
CHCl3 arrhythmia; 10 mg/kg
  inhibition in % of CHCl3 arrhythmia: 0%
CHCl3 arrhythmia; 15 mg/kg
  inhibition in % of CHCl3 arrhythmia: 10%
CHCl3 arrhythmia; 25 mg/kg
  inhibition in % of CHCl3 arrhythmia: 80%
[3]
  properties influencing the central nervous system (in words): no properties influencing the central nervous system
[4]; [15]
  systolic blood pressure, subsequent value: 187 ± 6 mm Hg
  systolic blood pressure, Δ: -12.7 ± 7 mm Hg
  systolic blood pressure, Δ %: -5.8 ± 3.3%
[4]; [16]
  systolic blood pressure, subsequent value: 187 ± 5 mm Hg
  systolic blood pressure, Δ: -13 ± 9 mm Hg
  systolic blood pressure, Δ %: -6.2 ± 4.0%
[4]; [17]
  systolic blood pressure, subsequent value: 181 ± 3 mm Hg
  systolic blood pressure, Δ: -21 ± 5 mm Hg
  systolic blood pressure, Δ %: -10.1 ± 2.1%
[4]; [18]
  systolic blood pressure, subsequent value: 175 ± 10 mm Hg
  systolic blood pressure, Δ: -29 ± 8 mm Hg
  systolic blood pressure, Δ %: -14.6 ± 4.1%
[4]; [19]
  systolic blood pressure, subsequent value: 152 ± 6 mm Hg
  systolic blood pressure, Δ: -41 ± 5 mm Hg
  systolic blood pressure, Δ %: -21.4 ± 2.7%
[5]; 10 mg/kg p.o., 10 min.
  heart rate at time t: 504
[5]; 10 mg/kg p.o., 20 min.
  heart rate at time t: 515
[5]; 10 mg/kg p.o., 40 min.
  heart rate at time t: 500
[5]; 10 mg/kg p.o., 80 min.
  heart rate at time t: 516
[5]; 10 mg/kg p.o., 2 h.
  heart rate at time t: 521
[5]; 10 mg/kg p.o., 4 h.
  heart rate at time t: 517
[5]; 10 mg/kg p.o., 6 h.
  heart rate at time t: 507
[5]; DHCN 10 mg/kg, THCN 10 mg/kg, on the border of statistical significance
  heart rate change (in words): an increase is to be observed
[6]; 10 mg/kg p.o., 10 min.
  percentage decrease of blood pressure: 10.6%
[6]; 10 mg/kg p.o., 20 min.
  percentage decrease of blood pressure: 14.5%
[6]; 10 mg/kg p.o., 40 min.
  percentage decrease of blood pressure: 14.5%
[6]; 10 mg/kg p.o., 80 min.
  percentage decrease of blood pressure: 6.1%
[6]; 10 mg/kg p.o., 2 h.
  percentage decrease of blood pressure: 3.7%
[6]; 10 mg/kg p.o., 4 h.
  percentage decrease of blood pressure: 0.8%
[6]; 10 mg/kg p.o., 6 h.
  percentage decrease of blood pressure: 1.4%
[6]; DHCN 10 mg/kg vs THCN 5 mg/kg p.o.
  blood pressure lowering action compared (in words): the same action
[6]; DHCN 10 mg/kg, THCN 5 mg/kg p.o.
  time of maximum blood pressure lowering: about 40 minutes
[6]; DHCN 10 mg/kg, THCN 5 mg/kg p.o., after about 40 minutes
  blood pressure after the maximum (in words): the blood pressure again increases to the initial value
[7]; [15]
  heart rate, subsequent value: 485 ± 14 beats/min.
  heart rate, Δ: 6 ± 20 beats/min.
  heart rate, Δ %: 1.5 ± 4.2%
[7]; [16]
  heart rate, subsequent value: 442 ± 19 beats/min.
  heart rate, Δ: -30 ± 18 beats/min.
  heart rate, Δ %: -6.2 ± 3.7%
[7]; [17]
  heart rate, subsequent value: 492 ± 12 beats/min.
  heart rate, Δ %: -0.6 ± 2.9%
[7]; [18]
  heart rate, subsequent value: 477 ± 5 beats/min.
  heart rate, Δ: -16 ± 11 beats/min.
  heart rate, Δ %: -3.1 ± 2.2%
[7]; [19]
  heart rate, subsequent value: 502 ± 14 beats/min.
  heart rate, Δ: 3 ± 21 beats/min.
  heart rate, Δ %: 2.9%
[9]
  period and strength of activity compared with ajmalicine (in words): greater than those of the known comparison compound ajmalicine
